Results published in US20240199722A1, “NANOPLATFORM FOR TARGETING MACROPHAGE AND COMPOSITION FOR PREVENTION OR TREATMENT OF METASTATIC CANCER” (SEOUL NATIONAL UNIVERSITY R&DB FOUNDATION, priority 2021, published 2024).

Tested on: macrophages at lung metastatic site
Assay: Early diagnosis of cancer metastasis in the 4T1-luc model: FDG-PET versus 111In-MSA-FL SPECT/CT (FIG. 8)
Format: in vivo, mouse
From the text: In order to verify the possibility of early diagnosis of cancer metastasis of the albumin-based nanoplatform conjugated with the mannosyl group, a model that may represent cancer metastasis was reproduced and confirmed through tissue staining whether it could actually reflect metastasis.
This animal model is known to naturally cause metastasis to secondary organs after transplanting cancer cells into mice, and is especially known to cause metastasis to the lung area, similar to the pattern of existing breast cancer.

## OC[C@H]1O[C@@H](O)[C@H]([18F])[C@@H](O)[C@@H]1O [FDG]
Day after modeling
  time at which cancer metastasis could be diagnosed: 28 days
Imaging on days 7, 14, 21, 28
  nuclear medicine signal/image in the lung area before metastasis: could hardly be confirmed
Quantification FIG. 8(b)
  uptake at the metastatic site, statistical significance: statistically significant difference only on Day 28
